Data from patent publication US20060004012A1, “Compounds, pharmaceutical compositions and methods for use in treating metabolic disorders” (priority 2004, published 2006).

Molecular target: T1, human GPR40 (Homo sapiens, UniProt O14842)
T1 construct: expressed in transfected cells; host or cells: CHO cells, transiently transfected with Lipofectamine 2000 and co-transfected with an aequorin expression vector (Euroscreen)
Assay: Cell-based aequorin assay using human GPR40
Settings: activation of human GPR40; CHO cells transfected with GPR40 and aequorin expression vectors; aequorin luminescence, area-under-curve 2-20 seconds; read-out: Relative EC50
Description: A cell-based aequorin assay may be employed to characterize the modulatory activity of compounds on the GPR40 signaling pathway. In an exemplary assay, CHO cells are transfected in a 15 cm plated containing 14 million cells with 5 μg of GPR40 expression vector and 5 μg of Aequorin expression vector (Euroscreen) using Lipofectamine 2000 (Invitrogen). After 17-24 hours post-transfection, cells are washed with phosphate buffered saline (PBS) and detached from the tissue culture dish with 2 mL of trypsin (0.25%(w/v)). Trypsinization is halted with 28 mL of Hanks Buffered Salt Solution containing 20 mM Hepes (H/HBSS) and 0.01% fatty acid-free bovine serum albumin (BSA) or 0.625% fatty acid-free human serum albumin (HSA). Coelantrazine is added to 1 ug/mL and the cells are incubated for 2 hours at room temperature. Cells are gently mixed every 15 minutes. Compounds are dissolved in dimethyl sulfoxide for preparation of 10 mM stock solutions. Compounds are diluted in H/HBSS containing either 0.01% BSA or 0.625% HSA. Serial dilutions of the test compounds are prepared to determine dose response.
Aequorin luminescence measurements are made using an EG&G Berthold 96-well luminometer and the response is measured over a 20 second interval after cells and compounds were mixed. The area-under-curve from 2-20 seconds is plotted to determine dose reponse. The EC50 (effective concentration to reach 50% maximal response) is determined from the dose response plot. […]

T1 sequence (O14842 whole entry): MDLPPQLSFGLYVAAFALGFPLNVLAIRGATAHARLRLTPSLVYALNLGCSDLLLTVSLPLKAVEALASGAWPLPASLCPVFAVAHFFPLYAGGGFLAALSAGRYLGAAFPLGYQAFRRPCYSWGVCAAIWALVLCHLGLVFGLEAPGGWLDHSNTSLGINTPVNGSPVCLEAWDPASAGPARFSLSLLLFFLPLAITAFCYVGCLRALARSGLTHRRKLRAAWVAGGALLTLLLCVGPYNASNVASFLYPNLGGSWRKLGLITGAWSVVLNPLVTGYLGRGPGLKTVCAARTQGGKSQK

Structure (SMILES)	EC50
CC#C[C@@H](CC(=O)O)c1ccc(OCc2nc(-c3ccc(C(F)(F)F)cc3)oc2C)cc1 [Compound 86]	< 10 nM
O=C(O)C[C@H](NC(=O)/C=C/c1ccccc1)c1ccc(OCc2cccc(Oc3ccc(F)cc3)c2)cc1 [Compound 88.5]	> 10000 nM
CC#CC(CC(=O)O)c1ccc(OCCc2ccccc2)cc1 (centres unmarked) [Compound 17.8]	1000 to 10000 nM
CC#CC(CC(=O)O)c1ccc(OCc2ccc(-c3nc4ccccc4[nH]3)cc2)cc1 (centres unmarked) [Compound 78]	1000 to 10000 nM
CC#CC(CC(=O)O)c1ccc(OCc2ccc(-c3ccc(C(F)(F)F)cc3)cc2)cc1 (centres unmarked) [Compound 7.10]	100 to 1000 nM
Cc1ccccc1C(CC(=O)O)c1ccc(OCc2cccc(Oc3ccccc3)c2)cc1 (centres unmarked) [Compound 84.4]	100 to 1000 nM
NC(=O)C(CC(=O)O)c1ccc(OCc2cccc(-c3ccc(C(F)(F)F)cc3)c2)cc1 (centres unmarked) [Compound 90]	1000 to 10000 nM
CC#CC(CC(=O)O)c1ccc(OCc2cccc(-c3ccccc3C(F)(F)F)c2)cc1 (centres unmarked) [Compound 6.8]	10 to 100 nM
CC#CC(CC(=O)Nc1nnn[nH]1)c1ccc(OCc2ccc(OC)cc2)cc1 (centres unmarked) [Compound 25.1]	1000 to 10000 nM
CC#CC(CC(=O)O)c1ccc(OCc2csc(-c3ccc(C)cc3)n2)cc1 (centres unmarked) [Compound 8.5]	10 to 100 nM
Cc1ccccc1COc1ccc(C(C#CC(F)(F)F)CC(=O)O)cc1 (centres unmarked) [Compound 87]	> 10000 nM
CC#CC(CC(=O)O)c1ccc(NC(=O)c2cccc(OC)c2)cc1 (centres unmarked) [Compound 74]	1000 to 10000 nM
O=C(O)CN(c1ccccc1)c1ccc(NC(=O)Cc2ccccc2)cc1 [Compound 82.4]	10 to 100 nM
CC#CC(CC(=O)O)c1ccc(N(C)Cc2cccc(OC)c2)cc1 (centres unmarked) [Compound 73]	1000 to 10000 nM
CC#CC(CC(=O)O)c1ccc(OCc2sc(-c3ccc(C(F)(F)F)cc3)nc2C)cc1 (centres unmarked) [Compound 9.1]	10 to 100 nM
CC#CC(CC(=O)O)c1ccc(OCc2ccc(Cc3ccccc3)cc2)cc1 (centres unmarked) [Compound 10.6]	10 to 100 nM
CC#CC(CC(=O)O)c1ccc(OCc2csc(-c3ccc(OC)c(OC)c3)n2)cc1 (centres unmarked) [Compound 8.6]	100 to 1000 nM
CC#CC(CC(=O)O)c1ccc(OCc2ccc(-c3ccc(C#N)cc3)cc2)cc1 (centres unmarked) [Compound 7.15]	10 to 100 nM
Cc1ccc(C(CC(=O)O)c2ccc(OCc3cccc(Oc4ccccc4)c3)cc2)cc1 (single isomer, unassigned) [Compound 84.2]	1000 to 10000 nM
CC#CC(CC(=O)O)c1ccc(OCc2sc(-c3ccccc3)nc2C)cc1 (centres unmarked) [Compound 9.3]	10 to 100 nM
CC#CC(CC(=O)O)c1ccc(OCc2ccc(-n3cncn3)cc2)cc1 (centres unmarked) [Compound 79]	1000 to 10000 nM
O=C(O)CC(c1ccc(OCc2cccc(-c3ccc(C(F)(F)F)cc3)c2)cc1)c1nn[nH]n1 (centres unmarked) [Compound 88.7]	1000 to 10000 nM

Structure (SMILES)	EC50
CC#CC(CC(=O)O)c1ccc(OCc2nc(-c3ccc(C(F)(F)F)cc3)oc2C)cc1 (centres unmarked) [Compound 18, 3-{4-[5-Methyl-2-(4-trifluoromethyl-phenyl)-oxazol-4-ylmethoxy]-phenyl}-hex-4-ynoic acid]	10 to 100 nM
CC#CC(CC(=O)O)c1ccc(OCc2ccc(-c3ccc(OCC)cc3)cc2)cc1 (centres unmarked) [Compound 7.9]	100 to 1000 nM
CC#CC(CC(=O)O)c1ccc(OCc2csc(-c3ccc(OC)cc3)n2)cc1 (centres unmarked) [Compound 8.4]	10 to 100 nM
Cc1ccccc1COc1ccc(C(C#CC(F)(F)F)CC(=O)O)cc1 (centres unmarked) [Compound 75]	> 10000 nM
CC#CC(CC(=O)O)c1ccc(OCc2ccc(CCc3ccccc3)cc2)cc1 (centres unmarked) [Compound 10.7]	100 to 1000 nM
CC#CC(CC(=O)O)c1ccc(OCc2sc(-c3ccc(OC)c(OC)c3)nc2C)cc1 (centres unmarked) [Compound 9.4]	10 to 100 nM
O=C(O)C[C@H](NC(=O)CCc1ccccc1)c1ccc(OCc2cccc(Oc3ccc(F)cc3)c2)cc1 [Compound 88.6]	> 10000 nM
C#CC(CC(=O)O)c1ccc(OCc2ccc(OC)cc2)cc1 (centres unmarked) [Compound 41]	100 to 1000 nM
CC#C[C@@H](CC(=O)O)c1ccc(OCc2cc(-c3ccccc3)oc2C)cc1 [Compound 5, 3-[4-(2-Methyl-5-phenyl-furan-3-ylmethoxy)-phenyl]-hex-4-ynoic acid]	10 to 100 nM
CC#C[C@@H](CC(=O)O)c1ccc(OCc2sc(-c3ccc(C)cc3)nc2C)cc1 [Compound 3, (S)-3-[4-(4-Methyl-2-p-tolyl-thiazol-5-ylmethoxy)-phenyl]-hex-4-ynoic acid]	< 10 nM
COc1cccc(C(CC(=O)O)c2ccc(OCc3cccc(Oc4ccccc4)c3)cc2)c1 (centres unmarked) [Compound 84.8]	100 to 1000 nM
CC#CC(CC(=O)O)c1ccc(N(Cc2cccc(OC)c2)Cc2cccc(OC)c2)cc1 (centres unmarked) [Compound 36.2]	100 to 1000 nM
CC#CC(CC(=O)O)c1ccc(OCc2ccc(-c3ccccc3OCC)cc2)cc1 (centres unmarked) [Compound 7.5]	10 to 100 nM
CC#C[C@@H](CC(=O)O)c1ccc(OCc2ccccc2C)cc1 (single isomer, unassigned) [Compound 15]	10 to 100 nM
O=C(O)CC(c1ccc(OCc2cccc(-c3ccc(C(F)(F)F)cc3)c2)cc1)c1cccnc1 (centres unmarked) [Compound 70.2]	100 to 1000 nM
COc1ccc(COc2ccc(C(C=C(C)C)CC(=O)O)cc2)cc1 (centres unmarked) [Compound 34.5]	100 to 1000 nM
CC#CC(CC(=O)O)c1ccc(OCc2cccc(-c3ccccc3OCC)c2)cc1 (centres unmarked) [Compound 6.2]	10 to 100 nM
CC#CC(CC(=O)O)c1ccc(OCc2ccc(-c3ccccn3)cc2)cc1 (centres unmarked) [Compound 10.4]	10 to 100 nM
CC#CC(CC(=O)O)c1ccc(OCc2noc(-c3ccc(C(F)(F)F)cc3)n2)cc1 (centres unmarked) [Compound 27.1]	100 to 1000 nM
CC#CC(CC(=O)O)c1ccc(NCc2cccc(OC)c2)cc1 (centres unmarked) [Compound 36.1]	100 to 1000 nM
COc1ccc(COc2ccc(C(CC(=O)O)c3ccc(F)cc3)cc2)cc1 (centres unmarked) [Compound 14.2]	100 to 1000 nM
CC#CC(CC(=O)O)c1ccc(OCc2cc(-c3ccccc3)no2)cc1 (centres unmarked) [Compound 77]	100 to 1000 nM
